Experimental data published in article PMC5908784, “Extracellular loops 2 and 3 of the calcitonin receptor selectively modify agonist binding and efficacy” (Biochemical Pharmacology, 2018).
Where no end group is shown, it is not given here.

Molecular target: T1, hCTR E294A (Homo sapiens, UniProt P30988, E294A)
T1 construct: c-Myc (N); expressed in transfected cells
T1 sequence (P30988 25-474 E294A): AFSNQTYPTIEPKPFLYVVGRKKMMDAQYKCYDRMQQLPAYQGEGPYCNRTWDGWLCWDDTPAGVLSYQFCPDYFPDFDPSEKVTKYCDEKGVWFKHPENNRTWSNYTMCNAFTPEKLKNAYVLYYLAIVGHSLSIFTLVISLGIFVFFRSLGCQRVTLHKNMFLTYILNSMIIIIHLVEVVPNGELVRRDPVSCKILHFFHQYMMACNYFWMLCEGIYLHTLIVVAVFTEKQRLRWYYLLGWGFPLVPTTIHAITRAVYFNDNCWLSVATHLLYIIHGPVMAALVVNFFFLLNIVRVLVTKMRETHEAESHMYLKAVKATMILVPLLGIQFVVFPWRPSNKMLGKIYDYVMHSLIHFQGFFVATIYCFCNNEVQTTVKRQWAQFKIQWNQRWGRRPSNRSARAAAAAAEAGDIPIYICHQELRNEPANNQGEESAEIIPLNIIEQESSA
Assay: Homologous whole cell competition binding
Conditions: homologous competition of 125I-sCT(8-32), whole cells, mean ± S.E.M., SEM
How it was run: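 Gamma counting of bound ^125I-sCT(8-32) after overnight 4 °C incubation of intact cells with tracer (two levels, 25–100 pM) plus unlabelled sCT(8-32) dilutions. Data normalized to total and 1 μM sCT(8-32) nonspecific binding; pKi via Cheng-Prusoff.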

Ki: 0.263 nM
Substance: VLGKLSQELHKLQTYPRTNTGSGTP-NH2 [sCT(8-32)]
